The remaining activity is the signal under treatment as a percentage of the control signal. As a reminder, the inhibition is the relative decrease from the control value, in per cent.

The source of these data is publication PMC10545747, “Development of cyclopeptide inhibitors of cGAS targeting protein-DNA interaction and phase separation” (Nature Communications, 2023).

Values joined by “and” are separate entries in the source; they are usually repeats but may differ in a detail not shown here. Equal entries are not always repeated. Square brackets hold non-standard residues; d marks the D form. Peptide text beside a SMILES is read from it. Hyp = O=C(O)[C@@H]1C[C@@H](O)CN1; Orn = NCCC[C@H](N)C(=O)O

This test deals with T1, recombinant human cGAS enzyme (hcGAS-ΔN, residues 147–522) (Homo sapiens, UniProt Q8N884).
T1 construct: N-terminally truncated human cGAS (hcGAS-ΔN, residues 147–522); 6xHis-SUMO (N, cleaved yes); made in house; host or cells: Escherichia coli BL21 (DE3)
Description: RNA-based fluorescent biosensor assay of cGAS activity (2',3'-cGAMP formation), in vitro screening. It is filed as biochemical. The settings on record: for Remaining activity (%), Fig. 1a source data / remaining activity at 20 µM: 20 μM, replicate values; for remaining activity at 20 µM: read-out: Remaining activity (%), Fig. 1a source data; for inhibition at 20 µM / Inhibition %: peptides screened at 20 μM, Supplementary Table 1 / Fig. S5b; for inhibition at 20 µM: read-out: Inhibition %. The source says:
To screen direct cGAS inhibitors targeting protein-DNA interface from our developed focused library of macrocyclic peptides, we applied an RNA-based fluorescent biosensor for 2’,3’-cGAMP to detect cGAS activity in vitro (Supplementary Fig. 1a)[49]. The formation of 2’,3’-cGAMP from ATP and GTP was catalyzed by recombinant human cGAS enzyme (hcGAS-ΔN, residues 147–522, Supplementary Fig. 1b) in the presence of ISD (interferon stimulatory DNA, a 45-bp dsDNA), which was readily quantified by the RNA-based fluorescent biosensor and was further confirmed by ion exchange chromatography (Supplementary Fig. 1c). […] Subsequently, a total of 90 macrocyclic peptides were screened at a concentration of 20 μM (Fig. 1a and Supplementary Fig. 1e), and 4 hits (XQ2, XQ8, XQ19, and XQ46) were obtained for further testing at a cut-off of 40% inhibition (Supplementary Table 1). To evaluate the inhibitory effect of the hits against cGAS in cells, we employed real-time quantitative PCR (qPCR) to examine mRNA levels of IFNΒ1 in THP1 cells. The reported cGAS inhibitor RU.521 was used as the positive control, and the non-active peptide XQ28 in the screening assay was used as the negative control. […] The inhibition of cGAS by these hits was further confirmed in the reporter cell line THP1-Lucia ISG (Invivogen) that expresses secreted luciferase induced by an IRF3-inducible ISG54 promoter (Fig. 1c). The discrepancy between the inhibitory effect of the hits in protein and cellular assays may be attributed to their different cellular permeability.
The high-throughput screening (HTS) experiments of cGAS activity are based on the method previously described. To initiate the enzyme reaction, ISD was added to the reaction solution (40 mM Tris-HCl, pH 7.5, 100 mM NaCl, 10 mM MgCl2) containing hcGAS-ΔN, ATP (Sangon Biotech, Cat# A600311) and GTP (Sangon Biotech, Cat# A620332) in a total volume of 20 ul with the final concentration of 0.5 μM, 1.5 μM, 1 mM, 1 mM, respectively, and incubated for 2 h at 37 °C. For HTS experiments, compounds were added to the same reaction conditions as described above with the final concentration of 20 μM. Z’ factors were calculated from three replicates in the 384-well plate.

T1 sequence (Q8N884 147-522, stated change not applied): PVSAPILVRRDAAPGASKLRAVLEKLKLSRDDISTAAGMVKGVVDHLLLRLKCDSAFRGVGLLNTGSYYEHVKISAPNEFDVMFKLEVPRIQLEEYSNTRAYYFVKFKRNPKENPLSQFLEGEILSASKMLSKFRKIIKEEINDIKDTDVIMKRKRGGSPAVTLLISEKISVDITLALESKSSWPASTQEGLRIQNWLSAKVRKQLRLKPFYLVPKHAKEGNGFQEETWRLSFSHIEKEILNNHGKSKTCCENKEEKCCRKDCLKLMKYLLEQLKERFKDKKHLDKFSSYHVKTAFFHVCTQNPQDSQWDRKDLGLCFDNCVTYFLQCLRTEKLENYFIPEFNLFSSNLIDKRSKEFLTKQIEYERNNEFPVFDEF

In the case of `CC(C)C[C@@H]1NC(=O)[C@H](CCCNC(=N)N)NC(=O)[C@H](C(C)C)NC(=O)[C@@H]2CCCN2C(=O)[C@@H](Cc2ccccc2)NC(=O)[C@H](C)NC(=O)[C@H](CCCNC(=N)N)NC(=O)[C@H](C)NC(=O)[C@@H]2CCCN2C(=O)[C@@H](Cc2ccccc2)NC1=O` [XQ15, Cyclo (AfPVRLfPAR)] (cyclo(ARA[dF]PVRL[dF]P)), the “Remaining activity (%), Fig. 1a source data” value (“Remaining activity (%)” below) is 110.709% and 110.469%; the remaining activity at 20 µM is 110%; the inhibition at 20 µM was determined as 0%.

Consider `CC(C)C[C@@H]1NC(=O)[C@H](CCCNC(=N)N)NC(=O)[C@H]([C@@H](C)O)NC(=O)[C@@H]2CCCN2C(=O)[C@@H](Cc2ccccc2)NC(=O)[C@H](CC(C)C)NC(=O)[C@H](CCCNC(=N)N)NC(=O)[C@H]([C@@H](C)O)NC(=O)[C@@H]2CCCN2C(=O)CNC1=O` [XQ32, Cyclo (LgPTRLfPTR)] (cyclo(GPTRL[dF]PTRL)), for which the “Remaining activity (%)” value was 69.874% and 69.5698%; the remaining activity at 20 µM was determined as 69.3%; the inhibition at 20 µM was found to be 30%.

As to `CC(C)[C@@H]1NC(=O)[C@@H]2CCCN2C(=O)[C@@H](Cc2ccccc2)NC(=O)[C@H](C)NC(=O)[C@H](CCCNC(=N)N)NC(=O)[C@H](C)NC(=O)[C@@H]2CCCN2C(=O)[C@@H](Cc2ccccc2)NC(=O)[C@H](C)NC(=O)[C@H](CCCNC(=N)N)NC1=O` [XQ18, Cyclo (AfPARAfPVR)] (cyclo(ARA[dF]PVRA[dF]P)), the “Remaining activity (%)” value was 93.9479% and 95.218%; the remaining activity at 20 µM worked out at 94.3%; the inhibition at 20 µM came out at 5%.

For `CC(C)C[C@@H]1NC(=O)[C@H](CC(=O)O)NC(=O)[C@H]([C@@H](C)O)NC(=O)[C@@H]2CCCN2C(=O)[C@@H](Cc2ccccc2)NC(=O)[C@H](CC(C)C)NC(=O)[C@H](CCCNC(=N)N)NC(=O)[C@H]([C@@H](C)O)NC(=O)[C@H](C)NC(=O)[C@@H](Cc2ccccc2)NC1=O` [XQ59, Cyclo (LfPTDLfATR)] (cyclo(ATRL[dF]PTDL[dF])), the inhibition at 20 µM came to 0%.

Take `CC(C)C[C@@H]1NC(=O)[C@H](CCCNC(=N)N)NC(=O)[C@H](C(C)C)NC(=O)[C@@H]2CCCN2C(=O)[C@@H](Cc2ccccc2)NC(=O)[C@H](C)NC(=O)[C@H](CC(C)C)NC(=O)[C@H](C(C)C)NC(=O)[C@@H]2CCCN2C(=O)[C@@H](Cc2ccccc2)NC1=O` [XQ50, Cyclo (LfPVLAfPVR)] (cyclo(A[dF]PVRL[dF]PVL)): the inhibition at 20 µM amounted to 0%.

Turning to `CC(C)C[C@@H]1NC(=O)[C@H](CCCNC(=N)N)NC(=O)[C@H](C(C)C)NC(=O)[C@@H]2CCCN2C(=O)[C@@H](Cc2ccccc2)NC(=O)[C@H](CC(C)C)NC(=O)[C@H](CCCNC(=N)N)NC(=O)[C@H](C)NC(=O)[C@@H]2CCCN2C(=O)[C@@H](Cc2ccccc2)NC1=O` [XQ3, Cyclo (LfPARLfPVR)] (cyclo(ARL[dF]PVRL[dF]P)), the “Remaining activity (%)” value is 67.2186% and 66.8539%; the remaining activity at 20 µM was 67.1%; the inhibition at 20 µM amounted to 33%.

As for `CC(C)C[C@@H]1NC(=O)[C@H](CCCNC(=N)N)NC(=O)[C@H](C(C)C)NC(=O)[C@@H]2CCCN2C(=O)[C@@H](Cc2c[nH]c3ccccc23)NC(=O)[C@H](CC(C)C)NC(=O)[C@H](CCCNC(=N)N)NC(=O)[C@H](C(C)C)NC(=O)[C@@H]2CCCN2C(=O)[C@@H](Cc2c[nH]c3ccccc23)NC1=O` [XQ11, Cyclo (LwPVRLwPVR)] (cyclo(L[dW]PVRL[dW]PVR)), the “Remaining activity (%)” value was 86.4291% and 86.3946%; the remaining activity at 20 µM is 85.2%; the inhibition at 20 µM was determined as 14%.

With `CC(C)C[C@@H]1NC(=O)[C@H](CCCNC(=N)N)NC(=O)[C@H](C(C)C)NC(=O)[C@@H]2C[C@@H](O)CN2C(=O)[C@@H](Cc2ccccc2)NC(=O)[C@H](CC(C)C)NC(=O)[C@H](CCCNC(=N)N)NC(=O)[C@H](C(C)C)NC(=O)[C@@H]2C[C@@H](O)CN2C(=O)[C@@H](Cc2ccccc2)NC1=O` [XQ12, Cyclo (Lf(Hyp)VRLf(Hyp)VR)] (cyclo([Hyp]VRL[dF][Hyp]VRL[dF])), the “Remaining activity (%)” value is 93.4229% and 93.3308%; the remaining activity at 20 µM is 93.7%; the inhibition at 20 µM was 7%.

In the case of Cyclo (LwPTDLf(K(Dde))(V(NMe))R) [XQ62], the Inhibition % is on record as 0%.

For the molecule `CC(C)C[C@@H]1NC(=O)[C@H](C)NC(=O)[C@H](C(C)C)NC(=O)[C@H](CCCNC(=N)N)NC(=O)[C@@H](Cc2ccccc2)NC(=O)[C@H](CC(C)C)NC(=O)[C@H](CC(=O)O)NC(=O)[C@H](C(C)C)NC(=O)[C@@H]2CCCN2C(=O)[C@@H](Cc2ccccc2)NC1=O` [XQ77, Cyclo (LfPVDLfRVA)] (cyclo(AL[dF]PVDL[dF]RV)), the inhibition at 20 µM came out at 10%.

On to Cyclo (LfRVDAfPVR) [XQ82], for which the Inhibition % came out at 0%.

As to Cyclo (Aa(Hyp)TDLfPTR) [XQ85], the Inhibition % was 0%.

For the molecule `CC(C)C[C@@H]1NC(=O)[C@H](CCCNC(=N)N)NC(=O)[C@H]([C@@H](C)O)NC(=O)[C@@H]2CCCN2C(=O)[C@@H](Cc2ccccc2)NC(=O)[C@H](C(C)C)NC(=O)[C@H](CCCNC(=N)N)NC(=O)[C@H]([C@@H](C)O)NC(=O)[C@@H]2CCCN2C(=O)[C@@H](Cc2ccccc2)NC1=O` [XQ30, Cyclo (VfPTRLfPTR)] (cyclo(L[dF]PTRV[dF]PTR)), the “Remaining activity (%)” value is 93.0523% and 92.7481%; the remaining activity at 20 µM is 93.2%; the inhibition at 20 µM amounted to 7%.

On to `CC(C)C[C@@H]1NC(=O)[C@H](C)NC(=O)[C@H](CCCNC(=N)N)NC(=O)[C@@H]2CCCN2C(=O)[C@@H](Cc2ccccc2)NC(=O)[C@H](CC(C)C)NC(=O)[C@H](CCCNC(=N)N)NC(=O)[C@H](C(C)C)NC(=O)[C@@H]2CCCN2C(=O)[C@@H](Cc2ccccc2)NC1=O` [XQ43, Cyclo (LfPRALfPVR)] (cyclo(AL[dF]PVRL[dF]PR)), for which the “Remaining activity (%)” value was 77.1619% and 77.2258%; the remaining activity at 20 µM stood at 76.3%; the inhibition at 20 µM came out at 23%.

Regarding `CCN(CC)CCCC(C)Nc1c2ccc(Cl)cc2nc2ccc(OC)cc12` (centres unmarked) [quinacrine, reference compound], the “cGAS activity in the biosensor assay” value is “inhibited the activity of cGAS in a dose-dependent manner”.

Consider `CC(C)C[C@H]1NC(=O)[C@H](Cc2ccccc2)NC(=O)[C@H]2CCCN2C(=O)[C@@H]([C@H](C)O)NC(=O)[C@@H](CCCNC(=N)N)NC(=O)[C@@H](CC(C)C)NC(=O)[C@H](Cc2ccccc2)NC(=O)[C@H]2CCCN2C(=O)[C@@H]([C@H](C)O)NC(=O)[C@@H](CCCNC(=N)N)NC1=O` [XQ24, Cyclo (tpFlrtpFlr)] (cyclo(F[dL][dR][dT][dP]F[dL][dR][dT][dP])), for which the “Remaining activity (%)” value was 93.4684% and 95.0442%; the remaining activity at 20 µM was 94.2%; the inhibition at 20 µM was 5%.

On to `CC(C)C[C@@H]1NC(=O)[C@H](CCCNC(=N)N)NC(=O)[C@H](C(C)C)NC(=O)[C@@H]2CCCN2C(=O)[C@@H](Cc2ccccc2)NC(=O)[C@H](C)NC(=O)[C@H](CCCNC(=N)N)NC(=O)[C@H](CC(C)C)NC(=O)[C@@H]2CCCN2C(=O)[C@@H](Cc2ccccc2)NC1=O` [XQ51, Cyclo (LfPLRAfPVR)] (cyclo(A[dF]PVRL[dF]PLR)), for which the inhibition at 20 µM turned out to be 0%.

On to `CC(C)C[C@@H]1NC(=O)[C@H](CCCNC(=N)N)NC(=O)[C@H](C(C)C)NC(=O)[C@@H]2CCCN2C(=O)[C@@H](C)NC(=O)[C@H](CC(C)C)NC(=O)[C@H](CCCNC(=N)N)NC(=O)[C@H](C(C)C)NC(=O)[C@@H]2CCCN2C(=O)[C@@H](C)NC1=O` [XQ7, Cyclo (LaPVRLaPVR)] (cyclo(L[dA]PVRL[dA]PVR)), for which the “Remaining activity (%)” value was 101.466% and 100.76%; the remaining activity at 20 µM was found to be 101%; the inhibition at 20 µM is 0%.

`CC(C)C[C@@H]1NC(=O)[C@H](CCCN)NC(=O)[C@H](C(C)C)NC(=O)[C@@H]2CCCN2C(=O)[C@@H](Cc2ccccc2)NC(=O)[C@H](CC(C)C)NC(=O)[C@H](CCCN)NC(=O)[C@H](C(C)C)NC(=O)[C@@H]2CCCN2C(=O)[C@@H](Cc2ccccc2)NC1=O` [XQ39, Cyclo (LfPV(Orn)LfPV(Orn))] (cyclo(V[Orn]L[dF]PV[Orn]L[dF]P)): the “Remaining activity (%)” value is 96.3833% and 97.8523%; the remaining activity at 20 µM amounted to 97.2%; the inhibition at 20 µM is 3%.
